Measured values: PMC4193772, “Dual Effects of Alpha-Arbutin on Monophenolase and Diphenolase Activities of Mushroom Tyrosinase” (PLoS ONE, 2014)

Columns and labels:
mushroom tyrosinase [1] = system: T1, mushroom tyrosinase; assay: dopachrome formation at […] nm, diphenolase activity, Lineweaver-Burk; format: biochemical; details: no α-arbutin, 6.67 µg/mL enzyme, 50 mM phosphate pH 6.8, 30°C, air-saturated; apparent Km
T1 construct: gene PPO3

mushroom tyrosinase [2] = molecular target: T1, mushroom tyrosinase; assay: dopachrome formation at […] nm, monophenolase activity; format: biochemical; details: 0.5 mM L-tyrosine, 20 µg/mL enzyme, 50 mM phosphate pH 6.8, 30°C, air-saturated, proposed suicide substrate

Row | Km (mushroom tyrosinase [1]) | SMILES | IC50 (mushroom tyrosinase [2])
1 | 3.92 mM | N[C@@H](Cc1ccc(O)c(O)c1)C(=O)O [L-Dopa] | 
2 |  | OC[C@H]1O[C@H](Oc2ccc(O)cc2)[C@H](O)[C@@H](O)[C@@H]1O [α-arbutin] | 4.5 mM
